As usually defined, the IC50 is the concentration that gives 50% inhibition.

One assay concerns FAK. Conditions: read-out: FAK inhibitor IC50; cited from earlier work.
Assay [1] has as its target thymidylate synthase (TS) (Homo sapiens, UniProt P04818). Description: In vitro thymidylate synthase enzymatic assay. The class given is biochemical. Conditions: compared with pemetrexed.
Assay [2] deals with PC-3 cells. Description: Apoptosis analysis, Annexin V-propidium iodide flow cytometry. The class given is cell-based, human. The note with it: PC-3, 48 h. For orientation: In flow cytometry, cells or beads pass a laser one at a time.
For assay [3], the system named is PC-3 cells. In words: Cell cycle analysis by PI staining, flow cytometry. The format is cell-based, human. Conditions: PC-3, at pre calculated IC50, 48 h.

thymidylate synthase (TS), sequence (P04818 whole entry): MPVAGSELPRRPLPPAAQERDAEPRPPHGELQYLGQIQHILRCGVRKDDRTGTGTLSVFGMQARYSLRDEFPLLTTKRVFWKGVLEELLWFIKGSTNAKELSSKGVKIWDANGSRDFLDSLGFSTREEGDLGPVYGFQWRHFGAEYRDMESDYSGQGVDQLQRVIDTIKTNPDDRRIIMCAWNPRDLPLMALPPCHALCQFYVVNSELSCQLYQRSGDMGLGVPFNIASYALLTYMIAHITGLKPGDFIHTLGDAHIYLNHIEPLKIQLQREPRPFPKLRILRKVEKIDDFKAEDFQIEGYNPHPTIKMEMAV

With `N.N.[Cl][Pt][Cl]` [Cisplatin], the concentration for half-maximal inhibition (IC50) in the assay with FAK was 8.6 µM.
Turning to `C=CCc1ccc(OCc2nn(CN3CCCC3)c(=S)o2)c(OC)c1` [Compound 15, 5-((4-Allyl-2-methoxyphenoxy)methyl)-3-(pyrrolidin-1-ylmethyl)-1,3,4-oxadiazole-2(3H) Thione], the “TS inhibition in words” value in assay [1] is listed as “comparable TS repression to pemetrexed”.
In the case of `C=CCc1ccc(OCc2nn(CN3CCOCC3)c(=S)o2)c(OC)c1` [Compound 17, 5-((4-Allyl-2-methoxyphenoxy)methyl)-3-(morpholinomethyl)-1,3,4-oxadiazole-2(3H)-thione], the “necrotic cells (R1, % Parent)” value in the assay with PC-3 cells [2] amounted to 3.56%. In the assay on PC-3 cells [3], the “percentage of cell population at G1 phase” value is 29.30%, the “percentage of cell population at G2 phase” value is given as 8.61% and the “percentage of cell population at the S phase” value was 62.07%.
